Measured values taken from patent publication US20240423992A1, “BIOMARKERS FOR TREATING LIVER DISORDERS WITH THR-B AGONISTS AND RELATED USES” (Madrigal Pharmaceuticals, Inc., priority 2023, published 2024).

How the values were obtained:
[1] = test system: adults with nonalcoholic fatty liver disease (NAFLD)/presumed nonalcoholic steatohepatitis (NASH); experiment: 52-week Phase 3 trial (Example 1): hepatic fat by MRI-PDFF; assay type: in vivo, human
Experimental: (§1) A 52-week randomized, double-blind, placebo-controlled Phase 3 trial was conducted to evaluate the safety and effect of resmetirom, an oral, once-daily, liver-targeted thyroid hormone receptor-β selective agonist, on multiple biomarkers in adults with nonalcoholic fatty liver disease (NAFLD)/presumed nonalcoholic steatohepatitis (NASH). Patients were randomized to three double-blind arms (100 mg resmetirom, 80 mg resmetirom, or placebo) or one open-label arm (100 mg resmetirom). Common concomitant medications across the 4 arms were antidiabetes drugs (such as glucagon-like peptide-1 receptor agonists (GLP-1 RAs), metformin, pioglitazone, and sodium/glucose cotransporter-2 inhibitors (SGLT2i)) and drugs to manage dyslipidemia (statins).

[2] = test system: adults with nonalcoholic fatty liver disease (NAFLD)/presumed nonalcoholic steatohepatitis (NASH); experiment: 52-week Phase 3 trial (Example 1): sex hormone levels; assay type: in vivo, human; conditions: Week 52
Experimental: as §1
Sex hormone levels after 52 weeks of resmetirom treatment are shown in Table A. Thyroid hormone levels after 52 weeks of resmetirom treatment are reported in Table B.

[3] = Resmetirom 80 mg DB vs Placebo DB
[4] = Resmetirom 100 mg DB vs Placebo DB

CC(C)c1cc(Oc2c(Cl)cc(-n3nc(C#N)c(=O)[nH]c3=O)cc2Cl)n[nH]c1=O [Resmetirom, 2-[3,5-dichloro-4-[(6-oxo-5-propan-2-yl-1H-pyridazin-3-yl)oxy]phenyl]-3,5-dioxo-1,2,4-triazine-6-carbonitrile]
hepatic fat reduction, 80 mg compared with 100 mg ([1]; 80 mg resmetirom, in general): less effective than 100 mg resmetirom | hepatic fat (MRI-PDFF), change from baseline ([1]; Week 52, all key patient subgroups): reduced hepatic fat from baseline | hepatic fat reduction by subgroup ([1]; weight gain ≥5% or <120% increase in SHBG): lower hepatic fat reduction | hepatic fat reduction by subgroup ([1]; weight loss ≥5% or ≥120% increase from baseline in SHBG): greater reduction in hepatic fat | Estradiol (female) LSM Difference [2, 3]: 7.1 ng/L | Estradiol (male) LSM Difference [2, 3]: 4.8 ng/L | FSH (female) LSM Difference [2, 3]: −1.1 IU/L | FSH (male) LSM Difference [2, 3]: 0.2 IU/L | Free testosterone (female) LSM Difference [2, 3]: 0.0002 µg/L | Free testosterone (male) LSM Difference [2, 3]: 0.0115 µg/L | LH (female) LSM Difference [2, 3]: −0.9 IU/L | LH (male) LSM Difference [2, 3]: 0.4 IU/L | SHBG (female) LSM Difference in % CFB [2, 3]: 119.5% | SHBG (female) LSM Difference in CFB [2, 3]: 39.9 nmol/L | SHBG (male) LSM Difference in % CFB [2, 3]: 69.7% | SHBG (male) LSM Difference in CFB [2, 3]: 24.5 (3.9) nmol/L | SHBG LSM Difference in % CFB [2, 3]: 96.0% | SHBG LSM Difference in CFB [2, 3]: 32.1 nmol/L | Testosterone (female) LSM Difference [2, 3]: 0.1 µg/L | Testosterone (male) LSM Difference [2, 3]: 1.5 µg/L | Estradiol (female) LSM CFB ([2]; Resmetirom 80 mg DB): 5.0 ng/L | Estradiol (male) LSM CFB ([2]; Resmetirom 80 mg DB): 3.3 ng/L | FSH (female) LSM CFB ([2]; Resmetirom 80 mg DB): 0.9 IU/L | FSH (male) LSM CFB ([2]; Resmetirom 80 mg DB): 0.3 IU/L | Free testosterone (female) LSM CFB ([2]; Resmetirom 80 mg DB): 0.0004 µg/L | Free testosterone (male) LSM CFB ([2]; Resmetirom 80 mg DB): 0.0077 µg/L | LH (female) LSM CFB ([2]; Resmetirom 80 mg DB): 0.8 IU/L | LH (male) LSM CFB ([2]; Resmetirom 80 mg DB): 0.4 IU/L | SHBG (female) LSM % CFB ([2]; Resmetirom 80 mg DB): 133.0% | SHBG (female) LSM CFB ([2]; Resmetirom 80 mg DB): 43.3 nmol/L | SHBG (male) LSM % CFB ([2]; Resmetirom 80 mg DB): 67.1% | SHBG (male) LSM CFB ([2]; Resmetirom 80 mg DB): 21.9 nmol/L | SHBG LSM % CFB ([2]; Resmetirom 80 mg DB): 99.6% | SHBG LSM CFB ([2]; Resmetirom 80 mg DB): 32.7 nmol/L | Testosterone (female) LSM CFB ([2]; Resmetirom 80 mg DB): 0.1 µg/L | Testosterone (male) LSM CFB ([2]; Resmetirom 80 mg DB): 1.4 µg/L | Estradiol (female) LSM Difference [2, 4]: 9.5 ng/L | Estradiol (male) LSM Difference [2, 4]: 10.4 ng/L | FSH (female) LSM Difference [2, 4]: −0.4 IU/L | FSH (male) LSM Difference [2, 4]: 0.5 IU/L | Free testosterone (female) LSM Difference [2, 4]: -0.0006 µg/L | Free testosterone (male) LSM Difference [2, 4]: 0.0029 µg/L | LH (female) LSM Difference [2, 4]: −0.5 IU/L | LH (male) LSM Difference [2, 4]: 0.8 IU/L | SHBG (female) LSM Difference in % CFB [2, 4]: 184.0% | SHBG (female) LSM Difference in CFB [2, 4]: 61.8 nmol/L | SHBG (male) LSM Difference in % CFB [2, 4]: 125.5% | SHBG (male) LSM Difference in CFB [2, 4]: 41.7 (3.8) nmol/L | SHBG LSM Difference in % CFB [2, 4]: 157.5% | SHBG LSM Difference in CFB [2, 4]: 52.4 nmol/L | Testosterone (female) LSM Difference [2, 4]: 0.1 µg/L | Testosterone (male) LSM Difference [2, 4]: 2.1 µg/L | Estradiol (female) LSM CFB ([2]; Resmetirom 100 mg DB): 7.5 ng/L | Estradiol (male) LSM CFB ([2]; Resmetirom 100 mg DB): 8.9 ng/L | FSH (female) LSM CFB ([2]; Resmetirom 100 mg DB): 1.6 IU/L | FSH (male) LSM CFB ([2]; Resmetirom 100 mg DB): 0.6 IU/L | Free testosterone (female) LSM CFB ([2]; Resmetirom 100 mg DB): -0.0003 µg/L | Free testosterone (male) LSM CFB ([2]; Resmetirom 100 mg DB): -0.0009 µg/L | LH (female) LSM CFB ([2]; Resmetirom 100 mg DB): 1.2 IU/L | LH (male) LSM CFB ([2]; Resmetirom 100 mg DB): 0.9 IU/L | SHBG (female) LSM % CFB ([2]; Resmetirom 100 mg DB): 197.6% | SHBG (female) LSM CFB ([2]; Resmetirom 100 mg DB): 65.3 nmol/L | SHBG (male) LSM % CFB ([2]; Resmetirom 100 mg DB): 122.9% | SHBG (male) LSM CFB ([2]; Resmetirom 100 mg DB): 39.2 nmol/L | SHBG LSM % CFB ([2]; Resmetirom 100 mg DB): 161.1% | SHBG LSM CFB ([2]; Resmetirom 100 mg DB): 53.0 nmol/L | Testosterone (female) LSM CFB ([2]; Resmetirom 100 mg DB): 0.1 µg/L | Testosterone (male) LSM CFB ([2]; Resmetirom 100 mg DB): 2.0 µg/L | Estradiol (female) LSM CFB ([2]; Resmetirom 100 mg OL): 11.0 ng/L | Estradiol (male) LSM CFB ([2]; Resmetirom 100 mg OL): 11.7 ng/L | FSH (female) LSM CFB ([2]; Resmetirom 100 mg OL): 1.3 IU/L | FSH (male) LSM CFB ([2]; Resmetirom 100 mg OL): 0.6 IU/L | Free testosterone (female) LSM CFB ([2]; Resmetirom 100 mg OL): -0.0006 µg/L | Free testosterone (male) LSM CFB ([2]; Resmetirom 100 mg OL): 0.024 µg/L
